The values below come from patent publication US20090032411A1, “METHOD AND SYSTEM FOR DETECTING PHARMACOLOGICALLY ACTIVE SUBSTANCES BY MEASURING MEMBRANE CURRENTS WITH EXTRACELLULAR SENSORS” (Max-Planck-Gesellschaft zur Foerderung Der Wissenschaften …, priority 2006, published 2009).

“Also recorded” adds a separate entry of the source.

Holding throughout (format): cell-based
In assay [1] the target is T1, voltage-gated potassium channel Kv1.3 (Homo sapiens, UniProt P22001).
T1 construct: expressed in transfected cells; host or cells: HEK293
T1 sequence (P22001 whole entry): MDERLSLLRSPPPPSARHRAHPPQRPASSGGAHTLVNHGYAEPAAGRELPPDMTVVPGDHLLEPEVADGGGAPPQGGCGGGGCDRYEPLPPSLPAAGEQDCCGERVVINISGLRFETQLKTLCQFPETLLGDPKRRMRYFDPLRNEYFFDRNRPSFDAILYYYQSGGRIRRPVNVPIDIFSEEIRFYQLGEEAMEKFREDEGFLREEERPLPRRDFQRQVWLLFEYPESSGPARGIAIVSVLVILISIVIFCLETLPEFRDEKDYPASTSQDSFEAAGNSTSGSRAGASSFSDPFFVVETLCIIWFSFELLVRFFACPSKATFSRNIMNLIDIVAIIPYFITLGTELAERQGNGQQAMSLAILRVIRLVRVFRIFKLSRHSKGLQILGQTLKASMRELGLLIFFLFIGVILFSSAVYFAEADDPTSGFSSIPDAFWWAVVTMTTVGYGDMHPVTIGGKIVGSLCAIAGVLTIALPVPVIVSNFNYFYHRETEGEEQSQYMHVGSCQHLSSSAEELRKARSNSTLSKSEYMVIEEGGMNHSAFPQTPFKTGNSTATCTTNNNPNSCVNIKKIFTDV
The assay can be described thus: FET recording of the extracellular (junction) voltage signal of HEK293 cells doubly transfected with 5-HT3A and Kv1.3, blocker of Kv1.3. The method, then:
(§1) HEK293 cells were cultured in plastic dishes (Becton Dickinson, No. 353001), in Dulbecco's modified Eagle's medium (GIBCO, No. 21885-025), supplemented with 10% heat-inactivated fetal bovine serum. The cDNA of the human ligand-gated ion channel 5-HT3A was purchased from Invitrogen (Ultimate ORF clone collection, HORF01), and subcloned into the expression plasmid pcDNA3 (Invitrogen, No. V790-20), applying standard molecular biology methods. The construction of an expression plasmid for the voltage-gated potassium channel Kv1.3 was as described in J. Kupper: Functional expression of GFP-tagged Kv1.3 and Kv1.4 channels in HEK 293 cells. Eur. J. Neurosci. 10, 3908-12 (1998). The cells were stably transfected with one of the two expression plasmids using Geneticin (GIBCO, No. 11811-064), as the selection antibiotic (500 μg/ml). After generation of stable cell lines, the cells were transiently transfected with the other of the two expression plasmids together with the EGFP-C1 plasmid (BD Biosciences Clontech, No. 632317), which served as control for successful transfection. […]
(§2) Silicon chips as described in M. Voelker, P. Fromherz: Signal transmission from individual mammalian nerve cell to field-effect transistor. […] Cells on transistor gates with the transiently expressed channels were identified by the green EGFP fluorescence. […]

Assay [2] addresses T2, ligand-gated ion channel 5-HT3A (Homo sapiens, UniProt P46098).
T2 construct: host or cells: HEK293
T2 sequence (P46098 24-478): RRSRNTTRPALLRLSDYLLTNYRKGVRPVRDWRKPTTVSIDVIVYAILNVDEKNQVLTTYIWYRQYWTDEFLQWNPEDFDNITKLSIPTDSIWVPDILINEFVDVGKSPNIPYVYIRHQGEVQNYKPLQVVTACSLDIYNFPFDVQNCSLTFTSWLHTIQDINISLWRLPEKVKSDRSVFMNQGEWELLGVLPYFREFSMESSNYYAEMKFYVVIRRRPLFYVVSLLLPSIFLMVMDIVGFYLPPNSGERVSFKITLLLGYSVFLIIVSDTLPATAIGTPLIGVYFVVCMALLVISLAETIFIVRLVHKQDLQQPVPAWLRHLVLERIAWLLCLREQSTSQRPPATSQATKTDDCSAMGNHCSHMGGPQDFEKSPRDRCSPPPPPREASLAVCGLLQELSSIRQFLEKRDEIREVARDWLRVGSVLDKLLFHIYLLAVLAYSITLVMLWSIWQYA
Briefly: FET recording of the extracellular (junction) voltage signal of HEK293 cells doubly transfected with 5-HT3A and Kv1.3, ligands of 5-HT3A. The following applies: for extracellular voltage signal in the cell-chip junction on application of agonist: agonist 100 μM, cells expressing both 5-HT3A and Kv1.3, FET recording; for effect on the serotonin-induced extracellular voltage signal: tropisetron 1 μM present before and during stimulation with 100 μM serotonin, doubly transfected cell. As for the experimental part: HEK293 cells were cultured in plastic dishes (Becton Dickinson, No. 353001), in Dulbecco's modified Eagle's medium (GIBCO, No. 21885-025), supplemented with 10% heat-inactivated fetal bovine serum. The cDNA of the human ligand-gated ion channel 5-HT3A was purchased from Invitrogen (Ultimate ORF clone collection, HORF01), and subcloned into the expression plasmid pcDNA3 (Invitrogen, No. V790-20), applying standard molecular biology methods. The construction of an expression plasmid for the voltage-gated potassium channel Kv1.3 was as described in J. Kupper: Functional expression of GFP-tagged Kv1.3 and Kv1.4 channels in HEK 293 cells. Eur. J. Neurosci. 10, 3908-12 (1998). The cells were stably transfected with one of the two expression plasmids using Geneticin (GIBCO, No. 11811-064), as the selection antibiotic (500 μg/ml). After generation of stable cell lines, the cells were transiently transfected with the other of the two expression plasmids together with the EGFP-C1 plasmid (BD Biosciences Clontech, No. 632317), which served as control for successful transfection. Transfections were done using the Effectene method (Qiagen, No. 301425), at 60-80% confluency.
Silicon chips as described in M. Voelker, P. Fromherz: Signal transmission from individual mammalian nerve cell to field-effect transistor. Small 1, 206-210 (2005) with 128 Field Effect Transistors (FET) in two linear arrays and a culture chamber on top were cleaned, sterilized under UV-light and coated with 10 μg/ml fibronectin (Sigma, No. F2006). Cells were plated on these chips under normal culture conditions one day after transient transfection, and measurements were done one day after plating. Cells on transistor gates with the transiently expressed channels were identified by the green EGFP fluorescence.
During experiments the cells were flushed permanently with standard extracellular solution, consisting of (in mM): KCl 5.4, NaCl 135, CaCl2 1.8, MgCl2 1 Glucose 10, Hepes 5 (pH adjusted to 7.4 with NaOH). The ligands serotonin, CPBG (agonists of 5-HT3A) tropisetron and margatoxin (antagonists of 5-HT3A and Kv1.3, respectively), were obtained from Sigma (No. H9523, C144, T104, M8278), and dissolved in extracellular solution.
Ligand solutions were applied rapidly (ms range), with a double barrelled glass pipette (Theta-Tube), connected to a piezoelectric actuator (Burleigh, LSS-3100). Different ligand solutions were directed to the glass pipette by an eight-channel valve control system (ALA, BPS-8).
During application of ligands, the voltage in the cleft between transfected cells and the chip surface was probed with the gates of Field Effect Transistors under the cells.

The target of assay [3] is T3, voltage-gated channel Kv1.3 (Homo sapiens, UniProt P22001).
T3 construct: expressed in transfected cells; host or cells: HEK293
T3 sequence (P22001 whole entry): as the sequence (P22001 whole entry) above
Briefly: FET recording of junction voltage of HEK293 cells expressing only Kv1.3. As for the experimental part:
as §1, §2

For assay [4], the target named is T2, ligand-gated ion channel 5-HT3A. The assay can be described thus: FET recording of junction voltage of HEK293 cells expressing only 5-HT3A. The method, then: as §1, §2

With “margatoxin (TIINVKCTSPKQCLPPCKAQFGQSAGAKCMNGKCKCYPH; UniProt P40755 1-39, looked up)”, the “effect on the serotonin-induced extracellular voltage signal” value in assay [1] (5 nM margatoxin present during 100 μM serotonin stimulation, doubly transfected cell) is “The signal was reduced; also recorded: blocked the signal”. Besides, in assay [1] (same cell, after removal of 5 nM margatoxin), the “serotonin-triggered signal after removal of margatoxin (reversibility)” value is “A biphasic voltage signal was recovered”.

Turning to `NCCc1c[nH]c2ccc(O)cc12` [serotonin], the “extracellular voltage signal in the cell-chip junction on application of agonist” value in assay [2] is recorded as “triggered a biphasic voltage signal; also recorded: Biphasic extracellular voltage signal; also recorded: caused a biphasic voltage signal”. For the same compound, the “voltage signal in the cell-chip junction upon stimulation with serotonin” value is given as “failed to produce a signal” in assay [3] and “failed to cause a voltage signal” in assay [4].

`NC(N)=NC(N)=Nc1cccc(Cl)c1` [CPBG]: the “extracellular voltage signal in the cell-chip junction on application of agonist” value in assay [2] is recorded as “triggered a biphasic voltage signal; also recorded: caused a biphasic voltage signal”.

`CN1[C@@H]2CC[C@H]1C[C@@H](OC(=O)c1c[nH]c3ccccc13)C2` [tropisetron]: the “effect on the serotonin-induced extracellular voltage signal” value in assay [2] was “blocked the signal”; in assay [2] (listed as Tropisetron), “The signal was lost”.
